*1 amine or outer side, *2 acyl side, *3 side chain or, on linkers, in order; H or OH if unused. Where a SMILES comes first, the peptide text is derived from it. Bridges are numbered along the chain shown (N, C = ends). Roman numbers before positions name the chains, in order. [ ]: non-standard residue; d: D form. Actinocin(1to9) = Cc1c2oc3c(C)ccc(C(=O)[*:2])c3nc-2c(C(=O)[*:1])c(N)c1=O; Pro(4-oxo) = O=C1CN[C@H](C(=O)O)C1; NMeV = CN[C@H](C(=O)O)C(C)C; Sar = CNCC(=O)O

The subject of one series is M. tuberculosis H37Rv. The series is described as follows: microbe, parasite or virus in culture. Type of series: cell-based. Conditions: Mycobacterium tuberculosis.
Series [1] concerns M. tuberculosis SHRE sensitive. The series is described as follows: microbe, parasite or virus in culture. It counts as cell-based. Conditions: Mycobacterium tuberculosis.
Another series concerns M. tuberculosis (XDR). The series is described as follows: microbe, parasite or virus in culture. The following applies: Mycobacterium tuberculosis. Type of series: cell-based.
Series [2] has as its system dormant tubercle bacilli grown under hypoxic condition. The series is described as follows: Activity against latent TB bacilli, Wayne's dormant model. It counts as cell-based, M. tuberculosis.
Series [3] concerns biofilm of M. tuberculosis isolates (SHRE sensitive, MDR and XDR). In words: Inhibitory activity against MTB biofilm. It counts as cell-based.
Series [4] deals with Escherichia coli (NCIM2931). The series is described as follows: MIC by micro dilution broth assay with resazurin. Type of series: cell-based. Conditions: 18 hours at 37° C. Here is the method: (§1) The minimum inhibitory concentration (MIC) of the compound of formula (I) is determined for other bacterial pathogens Staphylococcus aureus (NCIM5021), Pseudomonas aeruginosa (NClM5029) and Escherichia coli (NCIM2931). The minimum inhibitory concentration (MIC) is determined by micro dilution broth assay method with modifications using resazurin as an indicator as follows:
(§2) (i) dissolving the compound of formula (I) in absolute ethanol to a concentration of 10 mg/ml;
(§3) (ii) Serially diluting the compound and adding to successive wells in a 96 well microtiter plate and incubating with the bacterial pathogens for 18 hours at 37° C.;
(§4) (iii) maintaining the growth and sterility controls during the experiment;
(§5) (iv) adding 10 μl of 0.01% resazurin solution and incubating for 2 hours;
(§6) (v) visually assessing the color change.
(§7) Blue colour indicates inhibition of growth, indicating MIC.

Series [5] deals with Pseudomonas aeruginosa (NCIM5029). The series is described as follows: MIC by micro dilution broth assay with resazurin. The following applies: 18 hours at 37° C. Type of series: cell-based. As to the method:
as §1, §2, §3, §4, §5, §6, §7
In general terms: The colour change of resazurin is a common sign of viable cells or microbes.

Series [6] relates to Staphylococcus aureus (NCIM5021). In words: MIC by micro dilution broth assay with resazurin. Type of series: cell-based. Conditions: 18 hours at 37° C. As to the method: as §1, §2, §3, §4, §5, §6, §7
For the next series, the system named is HIV IIIB (Clade B virus). The series is described as follows: Anti-HIV activity of purified compound, p24 antigen in infected PBMC. Conditions: day 7, 0 μg/ml control 2394. It counts as cell-based, HIV-1. Here is the method:
(§8) Virus production by transfection of 293T cells: 293T cells are plated at a concentration of 1×10^6 cells/ml in a 100 mm culture dish and grown at 37° C. in a CO2 incubator for 24 hours. Cells are transfected with 20 μg of HIV IIIB plasmid DNA using the mammalian cell transfection kit (Millipore). The culture supernatant is collected at 48 hours post transfection, clarified by centrifugation and stored in liquid nitrogen.
(§9) Titration of virus stock: Seven serial four-fold dilutions of virus stock, ranging from 1:[…] are titrated in triplicate in a 96-well flat bottomed tissue culture plate containing 200,000 cells/well (PBMC stimulated with PHA for 72 hours). After 7 days of culture at 37° C. in a CO2 incubator, the titration assay is terminated and the culture supernatants are tested for HIV-1 p24 antigen. The TCID50 (tissue culture infection dose50) is calculated employing the Spearman-Kaber method.
(§10) Testing for anti-HIV activity of compound: HIV IIIB is used as a representative Glade B virus and Indie-Cl as a representative Glade C virus. Healthy donor PBMC (Peripheral blood mononuclear cells) activated through PHA (Phyto heme agglutinin) stimulation for 72 hours are incubated with 100TCID50 of the virus per 1×10^6 cells for 2 hours at 37° C. The cells are washed twice to get rid of the unadsorbed virus and plated at a concentration of 200,000 cells/well in a 96-well tissue culture plate. Varying concentrations of the compound are added to triplicate wells (concentrations tested were 0.001 μg/ml, 001 μg/ml, 0.1 μg/ml, 1.0 μg/ml, 5.0 μg/ml and 10.0 tg/ml). Control cultures are set up without addition of the compound. Cultures are maintained for 7 days at 37° C. in a CO2 incubator. On day 7, culture supernatants are tested for HIV-1 p24 antigen.
(§11) Measurement of HIV-1 p24 antigen: HIV-1 p24 antigen production is measured as an indirect measure of viral replication in the culture supernatants using the Alliance HIV-1 p24 ELISA kit (Perkin Elmer, USA).
(§12) Virus growth is .determined, by measuring p24 concentrations in culture supernatants.

A further series deals with Indie-Cl (Clade C virus). The series is described as above. The following applies: day 7, 0 μg/ml control 406. It counts as cell-based, HIV-1. Here is the method:
as §8, §9, §10, §11, §12

Another series concerns 3T3 cells. In words: Cytotoxicity, MTT assay. Type of series: cell-based. Details: unit of the concentration uncertain. Conditions: for Average % Viability: 3T3 cells, MTT. As to the method:
Cytotoxicity of the compound is measured by adopting MTT assay (Mosmann, 1983) as follows:
(i) preparing, the sample by inoculating 3T3 cells in 5×10^4 concentrations in each well of 96 well microtiter plates with in Dulbecco's modified Eagles medium (DMEM) containing 10% FBS, 100 U/ml Penicillin 100 µg/ml Streptomycin;
(ii) incubating for a period of 2 days at a temperature of 37° C. in 5% CO2 atmosphere (Astec Japan); […]
(iv) Discarding the growth medium in the plates and washing the wells with phosphate buffer saline (PBS);
(v) Adding MTT in growth medium at a final concentration of 0.5 mg/ml and incubating for 4 hours;
(vi) solublizing the insoluble formazan crystals' with 0.04N HCl in isopropylalcohol and measuring the absorption on a Spectramax Plus384 spectrophotometer (Molecular Devices, Calif., USA) at 570 nm.
For each of the samples evaluated, the test is performed in triplicate. The control cells are treated with PBS. Overnight experiment is done with DMSO alone as a control.
A general note: Tetrazolium dyes change colour on reduction, which living cells bring about.

The nature of series [7]: Solubility of purified compound in solvents. Type of series: physicochemical. As to the method:
Solubility of purified compound is tested by adding the purified compound in 100 jxl of solvents such as methanol, chloroform, dichloromethane, diethyl ether, ethyl acetate and n-hexane. Melting point of the purified compound is tested using Tempo instrument and is determined as 240-242° C.

Regarding `Cc1c2oc3c(C)ccc(C(=O)N[C@@H]4C(=O)N[C@@H](C(C)C)C(=O)N5CCC[C@H]5C(=O)N(C)CC(=O)N(C)[C@@H](C(C)C)C(=O)O[C@@H]4C)c3nc-2c(C(=O)N[C@@H]2C(=O)N[C@@H](C(C)C)C(=O)N3CC(=O)C[C@H]3C(=O)N(C)CC(=O)N(C)[C@@H](C(C)C)C(=O)O[C@@H]2C)c(N)c1=O` [compound of formula (I), Transitmycin] (I: TV[Pro(4-oxo)][Sar][NMeV] / II: TVP[Sar][NMeV]; ester I:1-I:C, II:1-II:C; linker I:N-II:N via Actinocin(1to9)), the MIC was under 1 µg/mL in the series with M. tuberculosis H37Rv; 1.5 µg/mL in series [1]; 6.25 µg/mL against M. tuberculosis (XDR); 17.4 µg/mL in series [4]; 17.4 µg/mL in series [5]; 139 µg/mL in series [6]. In addition, the “CFU in M. tuberculosis cultures compared with CFU without the compound” value in series [2] is given as “Reduction in the CFU”. Also, the Biofilm formation result in series [3] (100 μg/ml, 37° C., 5 weeks) is “no, biofilm formation”. In addition, the “Viable colonies (CFU) after treatment of wells” value in series [3] (at the end of 2 months, […]) was “no viable colonies”. Besides, the P24 antigen in the series with HIV IIIB (Clade B virus) (compound 0.001 μg/ml) was determined as 1603 pg/mL; with HIV IIIB (Clade B virus) (compound 0.01 μg/ml), 337 pg/mL; in the series with HIV IIIB (Clade B virus) (compound 0.1 μg/ml), 163 pg/mL; in the series with HIV IIIB (Clade B virus) (compound 1 μg/ml) it was 144 pg/mL; with HIV IIIB (Clade B virus) (compound 5 μg/ml), 147 pg/mL; in the series on HIV IIIB (Clade B virus) (compound 10 μg/ml), 163 pg/mL. The P24 antigen was 390 pg/mL in the series with Indie-Cl (Clade C virus) (compound 0.001 μg/ml); 310 pg/mL with Indie-Cl (Clade C virus) (compound 0.01 μg/ml); 344 pg/mL with Indie-Cl (Clade C virus) (compound 0.1 μg/ml); 302 pg/mL in the series on Indie-Cl (Clade C virus) (compound 1 μg/ml); 295 pg/mL with Indie-Cl (Clade C virus) (compound 5 μg/ml); 296 pg/mL with Indie-Cl (Clade C virus) (compound 10 μg/ml). The “Average % Viability” value is on record as 93.00% in the series with 3T3 cells (10 (unit uncertain)), 86.01% in the series with 3T3 cells (25 (unit uncertain)), 73.88% in the series on 3T3 cells (50 (unit uncertain)) and 66.13% in the series with 3T3 cells (100 (unit uncertain)). Besides, in the series with 3T3 cells (even at 100 (unit uncertain) concentration), the Cytotoxic activity entry is “very poor cytotoxic activity”. The Solubility result in series [7] (Chloroform, Dichloromethane, Ethyl acetate, Methanol, Ethanol, Acetonitrile, DMSO, water) is listed as “Souble”; in series [7] (Hexane) it was “Insoluble”.
As for `NNC(=O)c1ccncc1` [INH, reference compound], the “Effect of standard drug against latent tubercle bacilli” value in series [2] (negative control) is reported as “resistant”.

The values above are taken from patent US20160200769A1, “Compound, Transitmycin, Effective Against Bacterial and Viral Pathogens” (INDIAN COUNCIL OF MEDICAL RESEARCH, priority 2013, published 2016).
